Test: Hygroscopicity of oleyl phosphocholine (water absorption)
Format: physicochemical
Conditions: exposed to 90% RH at 25° C.
Method: The development of solid dosage formulations of oleyl phosphocholine, and specifically the development of tablets, is complicated by the low melting point (56.3° C.), high hygroscopicity (absorbing 41.67 weight percent of water when exposed to 90% RH at 25° C.) and irregular particle size and shape of oleyl phosphocholine. These characteristics make it hard to obtain homogeneous, dry powders for tableting.

For `CCCCCCCC/C=C\CCCCCCCCOP(=O)([O-])OCC[N+](C)(C)C` [oleyl phosphocholine], the “hygroscopicity: water absorbed” value was 41.67 weight percent.

— patent US20230147712A1, “OLEYL PHOSPHOCHOLINE CONTAINING GRANULATES” (Oblita Therapeutics BVBA, priority 2020, published 2023)
